Patent publication US20260200849A1, “CATIONIC LIPIDS AND PREPARATION METHOD THEREOF” (RiboX Therapeutics HK Limited, priority 2024, published 2026)
Where “and” joins values, the source holds several entries; their conditions need not be identical. Equal values may be shown once. Read-outs that look alike come from different tables or passages of the source.

How the values were obtained:
IL-6 [1] = assay: In vivo tolerability by IM: serum IL-6 by Luminex; conditions: IM 1.0 mg/kg, male C57BL/6J mice N=3, Formulation 001, RNA 331
Protocol: 6-8 week old, male C57BL/6J mice (N=3) were injected with 1.0 mg*kg−1 of RNA-LNPs encoding for firefly-luciferase by intramuscular injection. At 2- and 24-hours post injection, about 40 μL blood was harvested and immediately added to the procoagulant containing tube. Stand for 30 min at room temperature and then centrifuged at 2500 g×10 min to obtain serum. About 15 μL serum samples were aliquoted for cytokine (MCP-1 and IL-6) detection by Luminex (ProcartaPlex Mouse 2-plex, Thermo). PBS group as negative control.

hEPO = assay: In vivo expression by IM: serum hEPO concentration by ELISA; conditions: IM 0.075 mg/kg, male C57BL/6J mice N=3, Formulation 001, RNA 019
Protocol: Circular RNA payloads were suspended in 25 mM Acetate Buffer (pH 4.5). To form LNPs, three volumes of human erythropoietin (hEPO) encoding cirRNA (SEQ ID NO:2), were mixed with one volume of lipids in ethanol solution by microfluidic mixing with the INano™ L+ (Micro& Nano) at a flow rate of 12 ml/min. The molar ratio of ionizable lipid to ribonucleotide was 6. After encapsulation, the particles were dialyzed twice against PBS. The LNP formulation was concentrated to targeted RNA concentration by Amicon® Ultra Centrifugal Filter (100 kDa MWCO) and filtered by a 0.65/0.22 um sterile filter.
6-8 week old, male C57BL/6J mice (N=3) were injected with 0.075 mg*kg−1 of RNA-LNPs encoding for hEPO by intramuscular injection. At 2-/6-/24-/48-/72 h-hours post injection, about 80 μL blood will be harvested and immediately added to the procoagulant containing tube. Stand for 30 min at room temperature and then centrifuged at 2500 g×10 min to obtain serum. About 30 μL serum samples will be aliquoted for hEPO concentration detection by ELISA kit (STEMCELL Technologies).

[2] = In vivo lipid metabolism by IV: ionizable lipid concentration in plasma and liver by LC-MS/MS; parameters: species or system Sprague-Dawley (SD) rats; conditions: IV 0.15 mg/kg RNA-LNPs (hEPO), male SD rats, individual animals N=3; for concentration at 6 h / concentration at 1 h / concentration at 168 h: male, Sprague-Dawley, rat, iv, 0.15 mg/kg
Procedure, shortened: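 Male SD rats, 7-8 weeks old (N=3), given 0.15 mg*kg−1 hEPO-encoding RNA-LNPs IV. Plasma sampled at 1, 6, 96 and 168 h and liver at 6 and 168 h terminally; ionizable lipid quantified by LC-MS/MS, LLOQ 1 ng/mL plasma, 11 ng/g liver.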

MCP-1 = assay: In vivo tolerability by IV: serum MCP-1 by Luminex; parameters: species or system C57BL/6J mice; conditions: Formulation No. 001, RNA No. 331, male C57BL/6J mice, 1.0 mg*kg/1 intravenous
Procedure, shortened: (§1)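 Male C57BL/6J mice aged 6-8 weeks (N=3) received 1.0 mg*kg−1 firefly-luciferase RNA-LNPs intravenously, with PBS as negative control. Serum taken at 2 and 24 h post-injection was assayed for MCP-1 and IL-6 by Luminex.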

IL-6 [3] = assay: In vivo tolerability by IV: serum IL-6 by Luminex; parameters: species or system C57BL/6J mice; conditions: Formulation No. 001, RNA No. 331, male C57BL/6J mice, 1.0 mg*kg/1 intravenous
Procedure, shortened: as §1

C57BL/6J mice = assay: In vivo expression by IV, 1.0 mg/kg luciferase RNA-LNPs, whole-body and organ IVIS luminescence; conditions: Formulation No. 001, RNA No. 331; male C57BL/6J mice, 1.0 mg*kg−1 intravenous, 24-hours post injection
Procedure, shortened: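 Male C57BL/6J mice, 6-8 weeks old (N=3), received 1.0 mg*kg−1 firefly-luciferase RNA-LNPs IV. At 24 h post-dose, luciferin (15 mg/ml) was given IP, and whole-body, liver, spleen, kidney, small and large intestine luminescence was imaged by IVIS.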

[4] = liver, 6 h post injection, read-out: Liver (ng/g), ionizable lipid concentration

Structure (SMILES) | IL-6 at 2 h (IL-6 [1]) | IL-6 at 24 h (IL-6 [1]) | Plasma (ng/mL), ionizable lipid concentration ([2]; 1 h post injection) | Liver (ng/g), ionizable lipid concentration ([2]; 6 h post injection) | Plasma (ng/mL), ionizable lipid concentration ([2]; 6 h post injection) | Plasma (ng/mL), ionizable lipid concentration ([2]; 96 h post injection) | Liver (ng/g), ionizable lipid concentration ([2]; 168 h post injection) | Plasma (ng/mL), ionizable lipid concentration ([2]; 168 h post injection) | concentration at 6 h [2, 4] | concentration at 1 h ([2]; plasma, 1 h post injection) | other results
CCCCC/C=C\C/C=C\CCCCCCCC(=O)NC(COC(=O)NCCN1CCCCC1)C(=O)OCCCCCCCC(=O)OC(CCCCCCCC)CCCCCCCC (centres unmarked) [Lipid 549] | 27 pg/mL | 146 pg/mL |  |  |  |  |  |  |  |  | hEPO conc. (ng/mL) at 2 h (hEPO; 2 h): 2.47 ng/mL; hEPO conc. (ng/mL) at 6 h (hEPO; 6 h): 7.26 ng/mL; hEPO conc. (ng/mL) at 24 h (hEPO; 24 h): 12.57 ng/mL; hEPO conc. (ng/mL) at 48 h (hEPO; 48 h): 2.61 ng/mL; hEPO conc. (ng/mL) at 72 h (hEPO; 72 h): 0.87 ng/mL
CCCCCCCC/C=C\CCCCCCCC(=O)NC(COC(=O)NCCN1CCCCC1)C(=O)OCCCCCCCCOC(=O)C(CCCCCC)CCCCCCCC (centres unmarked) [Lipid 700] | 15 pg/mL | 143 pg/mL | 1272 ng/mL and 1635 ng/mL | 25720 ng/g and 25028 ng/g | 359 ng/mL and 641 ng/mL and 966 ng/mL | 5.84 ng/mL and 4.4 ng/mL and 28.6 ng/mL | 696.6 ng/g and 191.6 ng/g and 236.8 ng/g | 1.24 ng/mL and 9.51 ng/mL | 26800 ng/g | 1440 ng/mL | 
CCCCCCCCC(CCCCCC)C(=O)OCCCCCCCCOC(=O)NC(COC(=O)NCCN1CCCCC1)C(=O)OCCCCCCCCOC(=O)C(CCCCCC)CCCCCCCC (centres unmarked) [Lipid 888] |  |  | 1635 ng/mL and 1440 ng/mL | 31120 ng/g and 47483 ng/g | 966 ng/mL and 975 ng/mL | 28.6 ng/mL (2×) and 12.9 ng/mL | 2277 ng/g and 2814 ng/g | 9.51 ng/mL and 8.26 ng/mL | 48800 ng/g | 1640 ng/mL | concentration at 168 h ([2]; liver, 168 h post injection, read-out: Liver (ng/g), ionizable lipid concentration): 1640 ng/g; concentration at 6 h ([2]; plasma, 6 h post injection, read-out: Plasma (ng/mL), ionizable lipid concentration): 966 ng/mL; concentration at 168 h ([2]; plasma, 168 h post injection, read-out: Plasma (ng/mL), ionizable lipid concentration): 9.51 ng/mL; MCP-1 at 2 h (MCP-1; 2 hours post injection): 396 pg/mL; MCP-1 at 24 h (MCP-1; 24 hours post injection): 206 pg/mL; IL-6 at 2 h (IL-6 [3]; 2 hours post injection): 5.5 pg/mL; IL-6 at 24 h (IL-6 [3]; 24 hours post injection): 5.71 pg/mL; Kidney (p/s) (C57BL/6J mice): 2.72E+07 p/s; Large intestine (p/s) (C57BL/6J mice): 1.07E+08 p/s; Liver (p/s) (C57BL/6J mice): 4.61E+09 p/s; Small intestine (p/s) (C57BL/6J mice): 8.59E+08 p/s; Spleen (p/s) (C57BL/6J mice): 2.55E+08 p/s; Whole body (p/s) (C57BL/6J mice): 4.10E+09 p/s
